Data as given in patent publication US9326978B2, “A3 adenosine receptor allosteric modulators” (The United States of America, Represented by the Secretary, …, priority 2006, dated 2016).

How the values were obtained:
human A1AR = human A1AR (Homo sapiens (Human), UniProt P30542); assay: Binding assay to the human A1AR ([3H]R-PIA); settings: [3H]R-PIA (2.0 nM), CHO cells, Table 2; for Ki: read-out: Ki(hA1AR); for inhibition at 10 µM: 1 h, read-out: hA1AR % displ. at 10 μM
Procedure: (§1) CHO (Chinese hamster ovary) cells expressing the recombinant human ARs (HEK-293 cells were used for the human A2AAR) were cultured in DMEM and F12 (1:1) supplemented with 10% fetal bovine serum, 100 units/ml penicillin, […] streptomycin and 2 μmol/ml glutamine. Cells were harvested by trypsinization. After homogenization and suspension, cells were centrifuged at 500 g for 10 min, and the pellet was re-suspended in 50 mM Tris.HCl buffer (pH 7.4) containing 10 mM MgCl2. The suspension was homogenized with an electric homogenizer for 10 sec, and was then re-centrifuged at 20,000 g for 20 min at 4° C. The resultant pellets were resuspended in buffer in the presence of 3 Units/mL adenosine deaminase, and the suspension was stored at −80° C. until the binding experiments. The protein concentration was measured using the Bradford assay.
(§2) For binding to the human A1AR, [^3H]R-PIA (2 nM) was incubated with membranes (40 μg/tube) from CHO cells stably expressing the human A1AR at 25° C. for 60 min in 50 mM Tris.HCl buffer (pH 7.4; MgCl2, 10 mM) in a total assay volume of 200 μL. Nonspecific binding was determined using 10 μM of N^6-cyclopentyladenosine. For human A2A AR binding, membranes (20 μg/tube) from HEK-293 cells stably expressing the human A2A AR were incubated with 15 nM [^3H]CGS21680 at 25° C. for 60 min in 200 μL of 50 mM Tris.HCl, pH 7.4, containing 10 mM MgCl2. N-5′-ethyluronamidoadenosine (10 μM) was used to define nonspecific binding. Reaction was terminated by filtration with GF/B filters.

human A3AR = human A3AR (Homo sapiens (Human), UniProt P0DMS8); assay: Competitive binding assay to the human A3AR ([125I]I-AB-MECA); settings: for inhibition at 10 µM: 1 h, read-out: hA3AR % displ. at 10 μM; for inhibition at 10 µM / Ki: [125I]I-AB-MECA (0.5 nM), CHO cells, Table 2; for Ki: read-out: Ki(hA3AR); for affinity to orthosteric versus allosteric binding sites (selective affinity): orthosteric sites of A1, A2A, A2B, A3 receptors vs allosteric site of A3 adenosine receptor
Procedure: as §1
Each tube in the competitive binding assay contained 100 μl membrane suspension (20 μg protein), 50 μl [^125I]-AB-MECA (0.5 nM), and 50 μl of increasing concentrations of the test ligands in Tris.HCl buffer (50 mM, pH 8.0) containing 10 mM MgCl2, 1 mM EDTA. Nonspecific binding was determined using 10 μM of 5′-N-ethylcarboxamidoadenosine in the buffer. The mixtures were incubated at 25° C. for 60 min. Binding reactions were terminated by filtration through Whatman GF/B filters under reduced pressure using a MT-24 cell harvester (Brandell, Gaithersburgh, Md., USA). Filters were washed three times with 9 mL ice-cold buffer. Radioactivity was determined in a Beckman 5500B γ-counter.

human A3ARs [1] = target: T1, human A3ARs (Homo sapiens (Human), UniProt P0DMS8); assay: Dissociation kinetics of [125I]I-AB-MECA from human A3ARs; assay type: binding; settings: 0.5 h, % decrease of dissociation at 30 min, residual binding of [125I]AB-MECA after 30 min = 100%, Table 2, read-out: hA3AR Ag. Dissociation at 10 μM
Procedure: The dissociation of [^125I]I-AB-MECA was measured as follows. Membranes (20 μg) were preincubated at 25° C. with 0.5 nM [^125I]I-AB-MECA, in a total volume of 100 μl of Tris-HCl buffer (50 mM, pH 8.0) containing 10 mM MgCl2, and 1 mM EDTA for 60 min. The dissociation was then initiated by the addition of 3 μM Cl-IB-MECA with or without allosteric modulators. The time course of dissociation of total binding was measured by rapid filtration at appropriate time intervals. Nonspecific binding was measured after 60-min incubation in the presence of 3 μM Cl-IB-MECA. Further assay was as described above.

hA2BAR = hA2BAR (Homo sapiens (Human), UniProt P29275); assay: Effect on NECA-induced cyclic AMP accumulation at A2B receptor; note: NECA (150 nM)-induced cyclic AMP accumulation; assay type: cell-based; settings: read-out: hA2BAR % inhib. at 10 μM
human A3ARs [2] = target: T1, human A3ARs; assay: Cyclic AMP accumulation assay, efficacy at hA3AR; assay type: cell-based; settings: compared to maximal effect by 2-Cl-IB-MECA alone (control = 100%)
Procedure: Intracellular cyclic AMP levels were measured with a competitive protein binding method (Nordstedt and Fredholm, 1990). CHO cells that expressed recombinant human A3ARs were harvested by trypsinization. After centrifugation and resuspension in medium, cells were plated in 24-well plates in 0.5 ml medium. After 24 hr, the medium was removed and cells were washed three times with 1 ml DMEM, containing 50 mM HEPES, pH 7.4. Cells were then treated with agonists and/or test compounds in the presence of rolipram (10 μM) and adenosine deaminase (3 units/ml). After 45 min forskolin (10 μM) was added to the medium, and incubation was continued an additional 15 min. The reaction was terminated by removing the supernatant, and cells were lysed upon the addition of 200 μL of 0.1 M ice-cold HCl. The cell lysate was resuspended and stored at −20° C. For determination of cyclic AMP production, protein kinase A (PKA) was incubated with [^3H]cyclic AMP (2 nM) in K2HPO4/EDTA buffer (K2HPO4, 150 mM; EDTA, 10 mM), 20 μL of the cell lysate, and 30 μL 0.1 M HCl or 50 μL of cyclic AMP solution (0-16 pmol/200 μL for standard curve). Bound radioactivity was separated by rapid filtration through Whatman GF/C filters and washed once with cold buffer. Bound radioactivity was measured by liquid scintillation spectrometry.

human A2A AR = human A2A AR (Homo sapiens (Human), UniProt P29274); assay: Binding assay to the human A2A AR ([3H]CGS21680); settings: [3H]CGS 21680 (15 nM), HEK293 cells, Table 2; for Ki: read-out: Ki(hA2AAR)
Procedure: as §1, §2

Sequence of human A1AR (P30542 whole entry): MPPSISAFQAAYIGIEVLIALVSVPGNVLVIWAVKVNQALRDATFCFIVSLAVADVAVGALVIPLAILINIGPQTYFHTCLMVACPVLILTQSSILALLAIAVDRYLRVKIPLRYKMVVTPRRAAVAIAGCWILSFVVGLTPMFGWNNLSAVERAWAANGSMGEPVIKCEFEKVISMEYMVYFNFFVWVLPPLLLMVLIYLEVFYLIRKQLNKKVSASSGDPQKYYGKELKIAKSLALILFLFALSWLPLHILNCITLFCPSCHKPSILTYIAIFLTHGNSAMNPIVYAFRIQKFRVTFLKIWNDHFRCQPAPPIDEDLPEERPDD
Sequence of human A2A AR (P29274 whole entry): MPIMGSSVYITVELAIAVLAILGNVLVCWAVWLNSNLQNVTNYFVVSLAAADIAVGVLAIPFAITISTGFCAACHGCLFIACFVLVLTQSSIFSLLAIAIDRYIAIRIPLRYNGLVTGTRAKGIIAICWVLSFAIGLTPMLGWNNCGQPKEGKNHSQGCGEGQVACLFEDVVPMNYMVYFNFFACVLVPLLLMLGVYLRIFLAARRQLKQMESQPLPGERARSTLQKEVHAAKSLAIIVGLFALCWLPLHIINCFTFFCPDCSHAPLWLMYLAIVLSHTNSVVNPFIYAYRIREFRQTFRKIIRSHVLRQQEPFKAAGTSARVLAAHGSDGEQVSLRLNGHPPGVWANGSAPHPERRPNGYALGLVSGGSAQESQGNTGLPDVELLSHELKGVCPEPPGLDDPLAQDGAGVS
Sequence of hA2BAR (P29275 whole entry): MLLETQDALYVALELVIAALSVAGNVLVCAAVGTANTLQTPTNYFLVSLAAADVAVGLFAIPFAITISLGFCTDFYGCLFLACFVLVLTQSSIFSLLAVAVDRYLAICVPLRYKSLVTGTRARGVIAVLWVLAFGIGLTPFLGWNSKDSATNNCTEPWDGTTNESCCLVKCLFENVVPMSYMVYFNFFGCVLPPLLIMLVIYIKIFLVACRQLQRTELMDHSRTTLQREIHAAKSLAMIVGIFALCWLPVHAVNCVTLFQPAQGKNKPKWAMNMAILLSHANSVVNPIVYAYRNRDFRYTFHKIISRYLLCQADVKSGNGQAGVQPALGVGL
T1 sequence (P0DMS8 whole entry): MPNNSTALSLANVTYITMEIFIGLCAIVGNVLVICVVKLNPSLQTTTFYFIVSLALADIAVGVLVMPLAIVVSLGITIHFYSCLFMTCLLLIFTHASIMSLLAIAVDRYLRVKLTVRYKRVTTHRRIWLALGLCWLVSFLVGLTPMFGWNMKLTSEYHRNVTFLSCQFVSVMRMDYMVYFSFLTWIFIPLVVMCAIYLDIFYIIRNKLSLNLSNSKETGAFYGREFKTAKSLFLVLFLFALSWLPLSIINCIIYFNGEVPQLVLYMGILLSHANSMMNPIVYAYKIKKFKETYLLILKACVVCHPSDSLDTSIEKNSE
Sequence of human A3AR (P0DMS8 whole entry): as above

Structure (SMILES)	Ki (human A1AR) [µM]	inhibition at 10 µM (human A3AR) [%]	Ki (human A3AR) [µM]	affinity to orthosteric versus allosteric binding sites (selective affinity) (human A3AR)	activity at 10 µM (human A3ARs [1]) [%]	inhibition at 10 µM (hA2BAR) [%]	% Increase of efficacy at hA3AR at 10 μM (human A3ARs [2]) [%]	Ki (human A2A AR) [µM]	melting point [°C]	hA2AAR % displ. at 10 μM (human A2A AR)	inhibition at 10 µM (human A1AR) [%]
c1ccc(Nc2nc3ccccc3c3[nH]c(C4CCCC4)nc23)cc1 [Compound 30, N-Phenyl-2-cyclopentyl-1H-imidazo[4,5-c]quinolin-4-amine, reference compound]	3.42 ± 0.23	90	0.786 ± 0.067	non-specific affinity	174 ± 5	-6.8	138 ± 8	3.15 ± 0.21	–	–	–
Cc1ccc(Nc2nc3ccccc3c3[nH]c(C4CCCC4)nc23)cc1 [Compound 31, N-(4-Methyl-phenyl)-2-cyclopentyl-1H-imidazo[4,5-c]quinolin-4-amine]	–	87	1.19 ± 0.107	–	153 ± 4	-4.1	128 ± 4	5.22 ± 0.32	125 to 126	–	–
COc1ccc(Nc2nc3ccccc3c3[nH]c(C4CCCC4)nc23)cc1 [Compound 32, N-(4-Methoxy-phenyl)-2-cyclopentyl-1H-imidazo[4,5-c]quinolin-4-amine]	4.17 ± 0.73	92	0.41 ± 0.064	–	166 ± 11	7.3	132 ± 4	> 10	106 to 107	(16%)	–
Clc1ccc(Nc2nc3ccccc3c3[nH]c(C4CCCC4)nc23)cc1Cl [Compound 33, N-(3,4-Dichloro-phenyl)-2-cyclopentyl-1H-imidazo[4,5-c]quinolin-4-amine]	> 10	67	4.69 ± 0.97	selective affinity	144 ± 9	-6.7	141 ± 5	> 10	114 to 115	(0%)	15
Clc1ccc(Nc2nc3ccccc3c3[nH]c(C4CCCC4)nc23)cc1 [Compound 34, N-(4-Chloro-phenyl)-2-cyclopentyl-1H-imidazo[4,5-c]quinolin-4-amine]	> 10	82	1.61 ± 0.55	–	159 ± 5	-10.2	136 ± 3	> 10	189 to 190	(17%)	22
OCc1cccc(Nc2nc3ccccc3c3[nH]c(C4CCCC4)nc23)c1 [Compound 35, N-(3-Methanol-phenyl)-2-cyclopentyl-1H-imidazo[4,5-c]quinolin-4-amine]	–	56	–	–	129 ± 15	-4.1	118 ± 4	–	228 to 230	49%	51
c1ccc2c(c1)nc(Nc1ccc3c(c1)CCC3)c1nc(C3CCCC3)[nH]c12 [Compound 36, N-([3,4-c]Indan)-2-cyclopentyl-1H-imidazo[4,5-c]quinolin-4-amine]	–	69	–	–	108 ± 4	-10.7	111 ± 5	–	142 to 145	8%	21
c1ccc2c(c1)nc(Nc1ccc3cn[nH]c3c1)c1nc(C3CCCC3)[nH]c12 [Compound 37, N-(1H-indazol-6-yl)-2-cyclopentyl-1H-imidazo[4,5-c]quinolin-4-amine]	–	67	–	–	109 ± 3	5	96 ± 2	–	235 to 236	68%	56
COc1ccc(CNc2nc3ccccc3c3[nH]c(C4CCCC4)nc23)cc1 [Compound 38, N-(4-Methoxy-benzyl)-2-cyclopentyl-1H-imidazo[4,5-c]quinolin-4-amine]	–	80	–	–	101 ± 13	0.3	109 ± 3	–	245 to 247	60%	59
c1ccc2c(c1)nc(Nc1ccc3cc[nH]c3c1)c1nc(C3CCCC3)[nH]c12 [Compound 39, N-(1H-Indol-6-yl)-2-cyclopentyl-1H-imidazo[4,5-c]quinolin-4-amine]	–	89	–	–	126 ± 9	10.1	125 ± 2	–	260 to 261	74%	70
c1ccc(CNc2nc3ccccc3c3[nH]c(C4CCCC4)nc23)cc1 [Compound 40, N-(Benzyl)-2-cyclopentyl-1H-imidazo[4,5-c]quinolin-4-amine]	–	86	–	–	145 ± 10	-3.4	147 ± 8	–	–	77%	28
c1ccc(CCNc2nc3ccccc3c3[nH]c(C4CCCC4)nc23)cc1 [Compound 41, N-(Phenylethyl)-2-cyclopentyl-1H-imidazo[4,5-c]quinolin-4-amine]	–	84	–	–	154 ± 7	-11.6	137 ± 4	–	95 to 97	91%	52
Clc1ccc(Nc2nc3ccccc3c3[nH]c(C4CCC4)nc23)cc1Cl [Compound 44, N-(3,4-Dichloro-phenyl)-2-cyclobutyl-1H-imidazo[4,5-c]quinolin-4-amine]	–	52	–	–	–	-5.5	126 ± 3	–	131 to 134	0.4%	-5
